Values after ≈ are worked out from the molar mass of the structure shown. Active and inactive are the calls of the source. The rule behind the calls is not given here.
Assays:
[1] = tested on: Candida albicans; assay: Antifungal activity against Candida albicans isolate 1 assessed as reduction in fungal growth incubated for 48 hrs by broth microdilution method; type: functional
[2] = tested on: Candida albicans; assay: Antifungal activity against Candida albicans isolate 2 assessed as reduction in fungal growth incubated for 48 hrs by broth microdilution method; type: functional
[3] = tested on: Candida albicans; assay: Antifungal activity against Candida albicans isolate 3 assessed as reduction in fungal growth incubated for 48 hrs by broth microdilution method; type: functional
[4] = tested on: Candida albicans; assay: Antifungal activity against Candida albicans isolate 4 assessed as reduction in fungal growth incubated for 48 hrs by broth microdilution method; type: functional
[5] = tested on: Candida albicans; assay: Antifungal activity against Candida albicans isolate 5 assessed as reduction in fungal growth incubated for 48 hrs by broth microdilution method; type: functional
[6] = tested on: Candida albicans; assay: Fungicidal activity against Candida albicans isolate 1 assessed as fungal killing incubated for 48 hrs followed by plating on SD agar plate; type: functional; details: read-out: MFC99.9
[7] = tested on: Candida albicans; assay: Fungicidal activity against Candida albicans isolate 2 assessed as fungal killing incubated for 48 hrs followed by plating on SD agar plate; type: functional; details: read-out: MFC99.9
[8] = tested on: Candida albicans; assay: Fungicidal activity against Candida albicans isolate 3 assessed as fungal killing incubated for 48 hrs followed by plating on SD agar plate; type: functional; details: read-out: MFC99.9
[9] = tested on: Candida albicans; assay: Fungicidal activity against Candida albicans isolate 4 assessed as fungal killing incubated for 48 hrs followed by plating on SD agar plate; type: functional; details: read-out: MFC99.9
[10] = tested on: Candida albicans; assay: Fungicidal activity against Candida albicans isolate 5 assessed as fungal killing incubated for 48 hrs followed by plating on SD agar plate; type: functional; details: read-out: MFC99.9
[11] = tested on: Candida albicans; assay: Fungicidal activity against Candida albicans ATCC 10231 assessed as reduction in fungal load at 1 ug/ml incubated for 8 hrs followed by inoculation on SD agar plate for 48 hrs by time-kill assay; type: functional, organism-based; details: dose 1.0 µg/ml, time 56.0 hrs
[12] = Toxicity in Swiss mouse assessed as body weight at 1 mg/kg, ip measured after 24 hrs (reference value: 36.25 +/- 0.31 g); type: organism-based; details: in vivo
[13] = Toxicity in Swiss mouse assessed as relative lung weight at 1 mg/kg, ip measured after 24 hrs (reference value: 6.35 +/- 0.68 g); type: organism-based; details: in vivo
[14] = Toxicity in Swiss mouse assessed as relative kidney weight at 1 mg/kg, ip measured after 24 hrs (reference value: 14.91 +/- 0.99 g); type: organism-based; details: in vivo
[15] = Toxicity in Swiss mouse assessed as relative spleen weight at 1 mg/kg, ip measured after 24 hrs (reference value: 4.02 +/- 0.59 g); type: organism-based; details: in vivo
[16] = Toxicity in Swiss mouse assessed as relative heart weight at 1 mg/kg, ip measured after 24 hrs (reference value: 4.75 +/- 0.60 g); type: organism-based; details: in vivo
[17] = Toxicity in Swiss mouse assessed as relative liver weight at 1 mg/kg, ip measured after 24 hrs (reference value: 49.42 +/- 7.17 g); type: organism-based; details: in vivo
[18] = tested on: Candida albicans; assay: In vivo antifungal activity in Swiss mouse infected with Candida albicans ATCC 10231 assessed as reduction in fungal load in liver at 1 mg/kg, ip administered at 2, 24 and 48 hrs post-infection and measured per gm of organ at 24 hrs post-last dose (reference value: 1.80); type: functional; details: time 72.0 hrs
[19] = tested on: Candida albicans; assay: In vivo antifungal activity in Swiss mouse infected with Candida albicans ATCC 10231 assessed as reduction in fungal load in kidney at 1 mg/kg, ip administered at 2, 24 and 48 hrs post-infection and measured per gm of organ at 24 hrs post-last dose (reference value: 2.47); type: functional; details: time 72.0 hrs
[20] = tested on: Candida albicans; assay: In vivo antifungal activity in Swiss mouse infected with Candida albicans ATCC 10231 assessed as reduction in fungal load in spleen at 1 mg/kg, ip administered at 2, 24 and 48 hrs post-infection and measured per gm of organ at 24 hrs post-last dose (reference value: 2.34); type: functional; details: time 72.0 hrs
[21] = tested on: Candida albicans; assay: In vivo antifungal activity in Swiss mouse infected with Candida albicans ATCC 10231 assessed as reduction in fungal load in liver at 10 mg/kg, ip administered at 2, 24 and 48 hrs post-infection and measured per gm of organ at 24 hrs post-last dose (reference value: 1.80); type: functional; details: time 72 hrs
[22] = tested on: Candida albicans; assay: In vivo antifungal activity in Swiss mouse infected with Candida albicans ATCC 10231 assessed as reduction in fungal load in kidney at 10 mg/kg, ip administered at 2, 24 and 48 hrs post-infection and measured per gm of organ at 24 hrs post-last dose (reference value: 2.47); type: functional, organism-based; details: time 72.0 hrs
[23] = tested on: Candida albicans; assay: In vivo antifungal activity in Swiss mouse infected with Candida albicans ATCC 10231 assessed as reduction in fungal load in spleen at 10 mg/kg, ip administered at 2, 24 and 48 hrs post-infection and measured per gm of organ at 24 hrs post-last dose (reference value: 2.34); type: functional, organism-based; details: time 72.0 hrs
[24] = Toxicity in iv dosed mouse measured for 24 hrs; type: organism-based; details: in vivo
[25] = Toxicity in po dosed mouse measured for 24 hrs; type: organism-based; details: in vivo

For `C[C@@H]1[C@H](O)[C@@H](C)/C=C/C=C/C=C/C=C/C=C/C=C/C=C/[C@H](O[C@@H]2O[C@H](C)[C@@H](O)[C@H](N)[C@@H]2O)C[C@@H]2O[C@](O)(C[C@@H](O)C[C@@H](O)[C@H](O)CC[C@@H](O)C[C@@H](O)CC(=O)O[C@H]1C)C[C@H](O)[C@H]2C(=O)O` [AMPHOTERICIN B], the MIC [1] was 39 µg/mL (≈ 42.2 µM), the MIC [2] was 39 µg/mL (≈ 42.2 µM) and the MIC [3] was 39 µg/mL (≈ 42.2 µM). The MIC [4] was 156 µg/mL (≈ 169 µM), the MIC [5] was 39 µg/mL (≈ 42.2 µM) and the MFC [6] was 78.1 µg/mL (≈ 84.5 µM). The MFC [7] was 312 µg/mL (≈ 338 µM), the MFC [8] was 39 µg/mL (≈ 42.2 µM) and the MFC [9] was 625 µg/mL (≈ 676 µM). For the same compound, the MFC [10] was 78.1 µg/mL (≈ 84.5 µM), the Activity [11] was “Active” and the Activity [12] was 31.12 g. It also gave an Activity [13] of 6.51 g, an Activity [14] of 15.56 g and an Activity [15] of 4.14 g. For the same compound, the Activity [16] was 5.94 g, the Activity [17] was 49.34 g and the Activity [18] was “Active”. For the same compound, the Activity [19] was “Active”, the Activity [20] was “Active” and the Activity [21] was 1.51 log10CFU. For the same compound, the Activity [22] was “Active” and the Activity [23] was “Active”.
`COc1cc2c(cc1OC)[C@@H]1N(C)Cc3c(cc(OC)c4c3OCO4)[C@]1(C)[C@H](O)C2` showed an LD50 at 24 h [24] of 41.6 mg/kg and an LD50 at 24 h [25] of 800 mg/kg.

From ChEMBL document CHEMBL4732126, “Design, synthesis, and biodistribution studies of new analogues of marine alkaloids: Potent in vitro and in vivo fungicidal agents against Candida spp” (Eur J Med Chem, 2021)
